Source: PubChem BioAssay AID2202554 (NIEHS Division of Translational Toxicology (DTT))
Records with an inconclusive call do not appear. Activity calls are given as the source filed them. How the calls were made is not given here.

The molecules below were run on S. typhimurium/E. coli reverse mutation, colony counts (assay: Bacterial reverse mutation test (aka Ames test) summary data).
How it was run: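 S. typhimurium his⁻ strains (TA97–TA1538) and E. coli WP2 uvrA pKM101 trp⁻, dosed over a range with or without rat, hamster or mouse liver S9. Preincubated 20 min at 37° C (or plate incorporation), plated in agar, incubated usually two days. Revertant colonies counted against negative controls.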
COc1ccc(C(=O)c2ccccc2O)c(O)c1 was tested, and the outcome was “active; positive”. With C1=CCCC=CCC1.C1=CCCC=CCC1.[Ni] the outcome was “active; positive”. With CC(C)(C#N)C(C)(C)C#N the outcome was “inactive; negative”. With O=C(O)CC[N+](=O)[O-] the outcome was “active; positive”. With CC=CC=CC=O the outcome was “active; positive”. With CCCCCCCCCCCCCCCCCC(O)=[OH+].O.[Cl][Cr][Cl].[Cl][Cr][Cl] the outcome was “active; positive”. Cc1ccc(C(C)(C)C)cc1 was tested, and the outcome was “inactive; negative”. In the case of [Cl][In]([Cl])[Cl], the outcome is reported as “inactive; negative”. For NNC(N)=O, the outcome was “inactive; negative”. With CCC(C)Nc1ccc(NC(C)CC)cc1 (centres undefined) the outcome was “inactive; negative”. With CCC(C(N)=O)(C(N)=O)c1ccccc1 the outcome was “active; weakly positive”. With CCCC(C)(COC(N)=O)COC(=O)NC(C)C (centres undefined) the outcome was “inactive; negative”. With NC(N)=NC(N)=NCCc1ccccc1 the outcome was “inactive; negative”. In the case of OCc1ccccc1, the outcome is reported as “inactive; negative”. CC(C)[C@@H]1CC[C@@H](C)C[C@@H]1O was tested, and the outcome was “inactive; negative”. In the case of CC(=O)C(C)=O, the outcome is reported as “active; positive”. In the case of Cc1c(N)cccc1[N+](=O)[O-], the outcome is reported as “active; positive”. In the case of O=C(O)C(Br)(Br)Br, the outcome is reported as “active; positive”. With O=[N+]([O-])C(Br)(CO)CO the outcome was “inactive; negative”. With NC(=NCCCCCCN=C(N)/N=C(\N)Nc1ccc(Cl)cc1)/N=C(\N)Nc1ccc(Cl)cc1 the outcome was “inactive; negative”. For COc1ccc(Cc2nccc3cc(OC)c(OC)cc23)cc1OC, the outcome was “inactive; negative”. c1ccc2c(c1)ccc1cc3c(ccc4ccccc43)cc12 was tested, and the outcome was “active; positive”. O=[N+]([O-])c1ccccc1Nc1ccccc1 was tested, and the outcome was “inactive; negative”. With CCCCOCCOCCO the outcome was “inactive; negative”. In the case of COc1cc(S(=O)(=O)O)c(C)cc1N=Nc1c(O)ccc2cc(S(=O)(=O)O)ccc12, the outcome is reported as “inactive; negative”. CCC(C)C(C)CO (centres undefined) was tested, and the outcome was “inactive; negative”. For O=C(/C=C/C=C/c1ccc2c(c1)OCO2)N1CCCCC1, the outcome was “inactive; negative”. CC=Cc1ccc(O)c(OC)c1 was tested, and the outcome was “inactive; negative”. With CCC#N the outcome was “inactive; negative”. In the case of COP(=O)(O)OC, the outcome is reported as “inactive; negative”. In the case of O=C(Nc1ccc(Cl)cc1)Nc1ccc(Cl)c(Cl)c1, the outcome is reported as “inactive; negative”. ClCC(Cl)(Cl)Cl was tested, and the outcome was “inactive; negative”. In the case of N#CC(O)c1ccccc1 (centres undefined), the outcome is reported as “inactive; negative”. In the case of Cl/C=C\Cl, the outcome is reported as “inactive; negative”. For CC(O)CO (centres undefined), the outcome was “inactive; negative”. With CCCCCO the outcome was “inactive; negative”. For Cc1cc2nc3c(=O)[nH]c(=O)nc-3n(C[C@H](O)[C@H](O)[C@H](O)CO)c2cc1C, the outcome was “inactive; negative”. For O=[N+]([O-])c1ccc(Nc2ccccc2O)c([N+](=O)[O-])c1, the outcome was “active; positive”. In the case of O=C(O)CNCP(=O)(O)O, the outcome is reported as “inactive; negative”. In the case of Cc1ccc2cc3c(ccc4ccccc43)c3c2c1CC3, the outcome is reported as “active; positive”. CC1=NN(c2ccccc2)C(=O)C1 was tested, and the outcome was “inactive; negative”. Nc1ccccc1O was tested, and the outcome was “active; positive”. In the case of CC(=O)OC(C)=O, the outcome is reported as “inactive; negative”. In the case of Cc1nnc(NS(=O)(=O)c2ccc(N)cc2)s1, the outcome is reported as “inactive; negative”. C[C@@H]1C[C@@H]([C@H](O)CC2CC(=O)NC(=O)C2)C(=O)[C@@H](C)C1 was tested, and the outcome was “inactive; negative”. In the case of Cc1noc(NS(=O)(=O)c2ccc(N)cc2)c1C, the outcome is reported as “inactive; negative”. With CCCN(CCC)CCC the outcome was “inactive; negative”. With CCOC(C)=O the outcome was “inactive; negative”. For CN, the outcome was “inactive; negative”. With FC(F)(F)c1ccc(Cl)cc1 the outcome was “inactive; negative”. With C=CCc1cc(OC)c2c(c1)OCO2 the outcome was “inactive; negative”. For Brc1c(Br)c(Br)c(Br)c(Br)c1Br, the outcome was “inactive; negative”. CCOP(=S)(OCC)SC1OCCOC1SP(=S)(OCC)OCC (centres undefined) was tested, and the outcome was “active; positive”. With Brc1ccccc1 the outcome was “inactive; negative”. In the case of CN(C)c1ccc(N=Nc2ccccc2)cc1, the outcome is reported as “active; positive”. In the case of CC(C)=CCC/C(C)=C/CC/C(C)=C/CC/C=C(\C)CC/C=C(\C)CCC=C(C)C, the outcome is reported as “inactive; negative”. For CC1=C(/C=C/C(C)=C/C=C/C(C)=C\C=O)C(C)(C)CCC1, the outcome was “active; weakly positive”. O=c1n(CC2CO2)c(=O)n(CC2CO2)c(=O)n1CC1CO1 (centres undefined) was tested, and the outcome was “active; positive”. For CCCCC(CC)CN (centres undefined), the outcome was “inactive; negative”. In the case of Nc1nc2ncc(CNc3ccc(C(=O)N[C@@H](CCC(=O)O)C(=O)O)cc3)nc2c(=O)[nH]1, the outcome is reported as “inactive; negative”. For O=C1CCO1, the outcome was “active; positive”. With CCCl the outcome was “active; positive”. With CCc1ccc(C(c2ccc(CC)cc2)C(Cl)Cl)cc1 the outcome was “active; positive”. OCCC(F)(F)C(F)(F)C(F)(F)C(F)(F)C(F)(F)C(F)(F)C(F)(F)C(F)(F)F was tested, and the outcome was “inactive; negative”. With Nc1ccccc1C(=O)OC1CCCCC1 the outcome was “inactive; negative”. CCCCC(=O)N(C)C was tested, and the outcome was “inactive; negative”. In the case of O=C(O)C(Cl)Br (centres undefined), the outcome is reported as “active; positive”. For Cc1c(N)cccc1N, the outcome was “active; positive”. For Nc1ccc([N+](=O)[O-])cc1O, the outcome was “active; positive”. In the case of Clc1c(Cl)c(Cl)c2c(c1Cl)Oc1c(Cl)c(Cl)c(Cl)c(Cl)c1O2, the outcome is reported as “inactive; negative”. For Nc1c(Cl)cc([N+](=O)[O-])cc1Cl, the outcome was “active; positive”. In the case of C=CC(=O)OCCCC, the outcome is reported as “inactive; negative”. COCCOC(=O)c1ccccc1C(=O)OCCOC was tested, and the outcome was “active; positive”. For Oc1ccc(Cl)c(Cl)c1, the outcome was “inactive; negative”. CC/C=C\C/C=C\C/C=C\CCCCCCCC(=O)OCC was tested, and the outcome was “active; weakly positive”. In the case of Nc1ccc(-c2ccc(N)c(Cl)c2)cc1Cl, the outcome is reported as “active; positive”. In the case of O=[N+]([O-])c1cccc(Cl)c1Cl, the outcome is reported as “active; weakly positive”. For Cc1ccc([N+](=O)[O-])cc1C, the outcome was “active; positive”. ClC1C(Cl)C(Cl)C(Cl)C(Cl)C1Cl (centres undefined) was tested, and the outcome was “inactive; negative”. With COc1cc(-c2ccc(N=Nc3cc(S(=O)(=O)O)c4ccccc4c3O)c(OC)c2)ccc1N=Nc1cc(S(=O)(=O)O)c2ccccc2c1N the outcome was “inactive; negative”. For CC(C)=CCl, the outcome was “active; positive”. In the case of O.O=S(=O)([O-])[O-].[Mn+2], the outcome is reported as “inactive; negative”. For CCn1cc(C(=O)O)c(=O)c2ccc(C)nc21, the outcome was “active; weakly positive”. CC(C)O was tested, and the outcome was “inactive; negative”. For O=CCCCC=O, the outcome was “active; positive”. In the case of O=C([O-])c1ccccc1C1c2ccc([O-])c(Br)c2Oc2c1ccc(O)c2Br.[Zr+2], the outcome is reported as “inactive; negative”. In the case of CC[C@H](CC[C@@H](C)[C@H]1CC[C@H]2[C@@H]3CC=C4C[C@@H](O)CC[C@]4(C)[C@H]3CC[C@]12C)C(C)C, the outcome is reported as “inactive; negative”. In the case of O=[N+]([O-])c1ccc2c(c1)Cc1cccc([N+](=O)[O-])c1-2, the outcome is reported as “active; positive”. N[C@@H](Cc1ccc(N(CCCl)CCCl)cc1)C(=O)O was tested, and the outcome was “active; positive”. CCCN(CCC)c1c([N+](=O)[O-])cc(C(F)(F)F)cc1[N+](=O)[O-] was tested, and the outcome was “active; positive”. In the case of CC(C)CC(C)Nc1ccc(Nc2ccccc2)cc1 (centres undefined), the outcome is reported as “inactive; negative”. C=C(Cl)Cl was tested, and the outcome was “inactive; negative”. Cc1c(C(=O)O)c(O)cc2c1C(=O)c1c(O)c([C@@H]3O[C@H](CO)[C@@H](O)[C@H](O)[C@H]3O)c(O)c(O)c1C2=O was tested, and the outcome was “active; weakly positive”. For COP(=O)(OC)OC, the outcome was “active; positive”. With CCCCCCCCCCCCCl the outcome was “inactive; negative”. In the case of C[Si](C)(C)O[Si](C)(O[Si](C)(C)C)O[Si](C)(C)C, the outcome is reported as “inactive; negative”. In the case of COc1ccc(O)cc1, the outcome is reported as “inactive; negative”. Nc1nc(=O)n([C@@H]2CS[C@H](CO)O2)cc1F was tested, and the outcome was “inactive; negative”. O=C(CCl)c1ccc(Cl)cc1Cl was tested, and the outcome was “active; positive”. With N[C@@H](Cc1c[nH]c2ccc(O)cc12)C(=O)O the outcome was “inactive; negative”. In the case of ClCCBr, the outcome is reported as “active; positive”. For Clc1c(Cl)c(Cl)c2c(Cl)c(Cl)c(Cl)c(Cl)c2c1Cl, the outcome was “inactive; negative”. For CC1CCC(C(C)CS)CC1S (centres undefined), the outcome was “inactive; negative”. CC=C(Cl)Cl was tested, and the outcome was “inactive; negative”. For O=c1c2ccccc2c(=O)c2c1ccc1[nH]c3c(ccc4c(=O)c5ccccc5c(=O)c43)[nH]c12, the outcome was “inactive; negative”. For [Cd+2].[Cl-].[Cl-], the outcome was “inactive; negative”. CC(=O)c1ccc(S(=O)(=O)NC(=O)NC2CCCCC2)cc1 was tested, and the outcome was “inactive; negative”. O=S(=O)(O)c1ccc(N=Nc2cc(S(=O)(=O)O)c3ccccc3c2O)c2ccccc12 was tested, and the outcome was “inactive; negative”. In the case of Cc1cc(=O)[nH]c(=S)[nH]1, the outcome is reported as “inactive; negative”. For CC1CCC2CC1C2(C)C (centres undefined), the outcome was “inactive; negative”. With OC(c1ccc(Cl)cc1)(c1ccc(Cl)cc1)c1ccc(Cl)cc1 the outcome was “inactive; negative”. In the case of NCP(=O)(O)O, the outcome is reported as “inactive; negative”. [O]=[Mo](=[O])=[O] was tested, and the outcome was “inactive; negative”. In the case of O=[N+]([O-])c1c(O)c(Cl)cc(Cl)c1Cl, the outcome is reported as “inactive; negative”. For CC(=O)c1ccncc1, the outcome was “inactive; negative”. C=CC=O was tested, and the outcome was “active; weakly positive”. For CCC(C)=NO, the outcome was “active; positive”. With C=CCNCC=C the outcome was “inactive; negative”. In the case of CCCCCCC=O, the outcome is reported as “inactive; negative”. For O=C1C(c2[nH]c3ccc(S(=O)(=O)O)cc3c2O)=Nc2ccc(S(=O)(=O)O)cc21, the outcome was “active; positive”. For CC(C)Nc1ccc(Nc2ccccc2)cc1, the outcome was “inactive; negative”. With C=CCOC(=O)c1ccccc1C(=O)OCC=C the outcome was “inactive; negative”. With CCCCCCCCCCCCCC(=O)N[N+](C)(C)CC(C)[O-] (centres undefined) the outcome was “inactive; negative”. For CCCCC=O, the outcome was “inactive; negative”.
